Results taken from patent US10336762B2 (priority 2017, dated 2019).
Read-outs that look alike come from different tables or passages of the source.

Legend:
TNFα = assay: cells; type: cell-based, human; conditions: Homo sapiens, Monocyte, LPS-stimulated human monocytes, read-out: EC50 TNF
IRAK4 enzyme = IRAK4 enzyme (Homo sapiens (Human), UniProt Q9NWZ3); assay: biochemical; type: biochemical; conditions: IRAK4 enzyme, 500 μM ATP
IRAK4 enzyme, sequence (Q9NWZ3 whole entry): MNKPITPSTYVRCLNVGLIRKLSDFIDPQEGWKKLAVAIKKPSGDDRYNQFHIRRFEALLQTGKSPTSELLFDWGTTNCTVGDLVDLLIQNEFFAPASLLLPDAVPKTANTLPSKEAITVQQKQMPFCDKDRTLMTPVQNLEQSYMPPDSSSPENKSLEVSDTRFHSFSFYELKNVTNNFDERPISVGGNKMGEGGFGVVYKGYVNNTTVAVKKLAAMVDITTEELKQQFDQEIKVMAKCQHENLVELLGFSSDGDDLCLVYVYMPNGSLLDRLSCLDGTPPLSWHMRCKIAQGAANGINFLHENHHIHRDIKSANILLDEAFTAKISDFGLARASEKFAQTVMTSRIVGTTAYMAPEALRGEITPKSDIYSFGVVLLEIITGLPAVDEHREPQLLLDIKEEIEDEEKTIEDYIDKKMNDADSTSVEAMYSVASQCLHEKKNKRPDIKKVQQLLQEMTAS

Row | SMILES | EC50 (TNFα; TNFα content) [nM] | IC50 (IRAK4 enzyme; TR-FRET (HTRF)) [nM] | EC50 (TNFα; TNFα by TR-FRET) [nM] | IC50 (IRAK4 enzyme; TR-FRET) [nM]
1 | CCC(=O)NC[C@H]1C[C@H](Nc2cc(-c3ccc4cc(C#N)cnn34)ncc2C(=O)NC[C@@H](F)C(C)(C)O)C1 [Example 538, 6-(3-cyanopyrrolo[1,2-b]pyridazin-7-yl)-N-((R)-2-fluoro-3-hydroxy-3-methylbutyl)-4-(((1r,3R)-3-(propionamidomethyl)cyclobutyl)amino)nicotin-amide] | 50 | < 1 | – | –
2 | CCCc1nccc(Nc2cc(-c3ccc4cc(C#N)cnn34)ncc2C(=O)NC[C@@H](F)C(C)(C)O)n1 [Example 843, (R)-6-(3-cyanopyrrolo[1,2-b]pyridazin-7-yl)-N-(2-fluoro-3-hydroxy-3-methylbutyl)-4-((2-propyl-pyrimidin-4-yl)amino)nicotinamide] | – | – | 137 | 1
3 | CC(C)Nc1cc(-c2ccc3cc(C#N)cnn23)ncc1C(=O)N[C@@H]1CCC[C@@H](O)C1 [Example 192, 6-(3-cyanopyrrolo[1,2-b]pyridazin-7-yl)-N-((1R,3R)-3-hydroxycyclohexyl)-4-(isopropylamino) nicotinamide] | 157 | – | – | 5
4 | CC(C)(O)CCNC(=O)c1cnc(-c2ccc3cc(C#N)cnn23)cc1NC12CCC(O)(CC1)CC2 [Example 355, 6-(3-cyanopyrrolo[1,2-b]pyridazin-7-yl)-N-(3-hydroxy-3-methylbutyl)-4-((4-hydroxy-bicyclo[2.2.2]octan-1-yl)amino)nicotinamide] | 23 | – | – | < 1
5 | CC(C)(O)[C@H](F)CNC(=O)c1cnc(-c2ccc3cc(C#N)cnn23)cc1N[C@H]1CC[C@H](NC(=O)OCC2CC2)CC1 [Example 287, cyclopropylmethyl ((1R,4r)-4-((2-(3-cyanopyrrolo[1,2-b]pyridazin-7-yl)-5-(((R)-2-fluoro-3-hydroxy-3-methylbutyl)carbamoyl)pyridin-4-yl)amino)cyclohexyl)carbamate] | 147 | – | – | 1
6 | CN(C)c1ncc(Nc2cc(-c3ccc4cc(C#N)cnn34)ncc2C(=O)NC[C@@H](F)C(C)(C)O)cn1 [Example 669, (R)-6-(3-cyanopyrrolo[1,2-b]pyridazin-7-yl)-4-((2-(dimethylamino)pyrimidin-5-yl)amino)-N-(2-fluoro-3-hydroxy-3-methylbutyl) nicotinamide] | 4 | < 1 | – | –
7 | CC(C)(O)[C@H](F)CNC(=O)c1cnc(-c2ccc3cc(C#N)cnn23)cc1NC12CCC(O)(CC1)C2 [Example 403, (R)-6-(3-cyanopyrrolo[1,2-b]pyridazin-7-yl)-N-(2-fluoro-3-hydroxy-3-methylbutyl)-4-((4-hydroxybicyclo[2.2.1]heptan-1-yl)amino) nicotinamide] | 14 | < 1 | – | –
8 | CC(C)(O)[C@H](F)CNC(=O)c1cnc(-c2ccc3cc(C#N)cnn23)cc1-n1cc(-c2ccc(N)cn2)cn1 [Example 939, (R)-4-(4-(5-aminopyridin-2-yl)-1H-pyrazol-1-yl)-6-(3-cyanopyrrolo[1,2-b]pyridazin-7-yl)-N-(2-fluoro-3-hydroxy-3-methyl-butyl)nicotinamide] | – | – | > 10000 | 642
9 | COC(=O)NC[C@H]1C[C@H](Nc2cc(-c3ccc4cc(C#N)cnn34)ncc2C(=O)NC2CCC(NC(=O)C3CC3)CC2)C1 (stereo partly drawn) [Example 830, methyl (((1R,3r)-3-((2-(3-cyanopyrrolo[1,2-b]pyridazin-7-yl)-5-(((1r,4R)-4-(cyclopropanecarboxamido)cyclohexyl)carbamoyl)pyridin-4-yl)amino)cyclobutyl)methyl)carbamate] | – | – | 23 | < 1
10 | CC(C)(O)[C@H](F)CNC(=O)c1cnc(-c2ccc3cc(C#N)cnn23)cc1N[C@H]1CCCN(S(C)(=O)=O)C1 [Example 257, 6-(3-cyanopyrrolo[1,2-b]pyridazin-7-yl)-N-((R)-2-fluoro-3-hydroxy-3-methylbutyl)-4-(((S)-1-(methylsulfonyl)piperidin-3-yl)amino)nicotinamide] | 129 | – | – | 1
11 | CC(C)(C)C(=O)N[C@H]1CC[C@H](Nc2cc(-c3ccc4cc(C#N)cnn34)ncc2C(=O)NC[C@@H](F)C(C)(C)O)CC1 [Example 296, 6-(3-cyanopyrrolo[1,2-b]pyridazin-7-yl)-N-((R)-2-fluoro-3-hydroxy-3-methylbutyl)-4-(((1r,4R)-4-pivalamidocyclohexyl)amino)nicotinamide] | 391 | – | – | 3
12 | COC(=O)N1CCC2(CC(Nc3cc(-c4ccc5cc(C#N)cnn45)ncc3C(=O)NC[C@@H](F)C(C)(C)O)C2)C1 (stereo partly drawn) [Example 903, (R)-methyl 2-((2-(3-cyano-pyrrolo[1,2-b]pyridazin-7-yl)-5-((2-fluoro-3-hydroxy-3-methylbutyl)carbamoyl)pyridin-4-yl)amino)-6-azaspiro[3.4]octane-6-carboxylate] | – | – | 79 | 1
13 | CNC(=O)c1cnc(-c2ccc3cc(C#N)cnn23)cc1NC12CCC(NC(C)=O)(CC1)C2 [Example 473, 4-((4-acetamido-bicyclo[2.2.1]heptan-1-yl)amino)-6-(3-cyano-pyrrolo[1,2-b]pyridazin-7-yl)-N-methylnicotinamide] | 33 | 1 | – | –
14 | CC(C)(O)[C@H](F)CNC(=O)c1cnc(-c2ccc3cc(C#N)cnn23)cc1NC[C@H]1CCN1CC(F)(F)F [Example 894, 6-(3-cyanopyrrolo[1,2-b]pyridazin-7-yl)-N-((R)-2-fluoro-3-hydroxy-3-methylbutyl)-4-((((R)-1-(2,2,2-trifluoroethyl)azetidin-2-yl)methyl)amino)nicotinamide] | – | – | 245 | 7
15 | CC(C)(O)[C@H](F)CNC(=O)c1cnc(-c2ccc3cc(C#N)cnn23)cc1N[C@H]1CC[C@H](OC(=O)NC2CC2)CC1 [Example 163, (1R,4r)-4-((2-(3-cyano-pyrrolo[1,2-b]pyridazin-7-yl)-5-(((R)-2-fluoro-3-hydroxy-3-methylbutyl)carbamoyl)pyridin-4-yl)amino)cyclohexyl cyclopropylcarbamate] | > 10000 | – | – | 90
16 | Cn1ccc(CNC(=O)c2cnc(-c3ccc4cc(C#N)cnn34)cc2NC23CCC(O)(CC2)CC3)n1 [Example 935, 6-(3-cyanopyrrolo[1,2-b]pyridazin-7-yl)-4-((4-hydroxybicyclo[2.2.2]octan-1-yl)amino)-N-((1-methyl-1H-pyrazol-3-yl)methyl)nicotinamide] | – | – | 153 | 2
17 | CC(C)(O)[C@H](F)CNC(=O)c1cnc(-c2ccc3cc(C#N)cnn23)cc1Nc1cnn([C@H]2CNC[C@H]2F)c1 [Example 914, 6-(3-cyanopyrrolo[1,2-b]pyridazin-7-yl)-N-((R)-2-fluoro-3-hydroxy-3-methylbutyl)-4-((1-((3S,4R)-4-fluoropyrrolidin-3-yl)-1H-pyrazol-4-yl)amino)nicotinamide] | – | – | 13 | < 1
18 | COC(=O)[C@@H](C)NC(=O)c1cnc(-c2ccc3cc(C#N)cnn23)cc1NC12CCC(O)(CC1)CC2 [Example 340, methyl (6-(3-cyano-pyrrolo[1,2-b]pyridazin-7-yl)-4-((4-hydroxy-bicyclo[2.2.2]octan-1-yl)amino)nicotinoyl)-D-alaninate] | 139 | – | – | 1
19 | CC(C)OC(=O)N[C@H]1CC[C@H](Nc2cc(-c3ccc4cc(C#N)cnn34)ncc2C(=O)NC[C@@H](F)C(C)(C)O)CC1 [Example 291, isopropyl ((1R,4r)-4-((2-(3-cyanopyrrolo[1,2-b]pyridazin-7-yl)-5-(((R)-2-fluoro-3-hydroxy-3-methylbutyl)carbamoyl)pyridin-4-yl)amino)cyclohexyl)carbamate] | 90 | – | – | 2
20 | CC(C)(O)[C@H](F)CNC(=O)c1cnc(-c2ccc3cc(C#N)cnn23)cc1Nc1cnn([C@@H]2CNC[C@H]2F)c1 [Example 882, 6-(3-cyanopyrrolo[1,2-b]pyridazin-7-yl)-N-((R)-2-fluoro-3-hydroxy-3-methylbutyl)-4-((1-((3R,4R)-4-fluoro-pyrrolidin-3-yl)-1H-pyrazol-4-yl)amino) nicotinamide] | – | – | 22 | < 1
21 | CC(C)(O)[C@H](F)CNC(=O)c1cnc(-c2ccc3cc(C#N)cnn23)cc1N[C@H]1CC[C@H](N2CCOC2=O)CC1 [Example 392, 6-(3-cyanopyrrolo[1,2-b]pyridazin-7-yl)-N-((R)-2-fluoro-3-hydroxy-3-methylbutyl)-4-(((1r,4R)-4-(2-oxooxazolidin-3-yl)cyclohexyl)amino) nicotinamide] | 50 | – | – | < 1
22 | CC(C)(O)[C@H](F)CNC(=O)c1cnc(-c2ccc3cc(C#N)cnn23)cc1NC1CC2(CNC2)C1 [Example 895, (R)-4-(2-azaspiro[3.3]heptan-6-ylamino)-6-(3-cyanopyrrolo[1,2-b]pyridazin-7-yl)-N-(2-fluoro-3-hydroxy-3-methyl-butyl)nicotinamide] | – | – | 1000 | 2
23 | CNC(=O)OC[C@H]1C[C@H](Nc2cc(-c3ccc4cc(C#N)cnn34)ncc2C(=O)NC[C@@H](F)C(C)(C)O)C1 [Example 725] | 23 | < 1 | – | –
24 | CC(C)(O)[C@H](F)CNC(=O)c1cnc(-c2ccc3cc(C#N)cnn23)cc1Nc1sc2c(c1C(N)=O)CCCC2 [Example 365, (R)-4-((3-carbamoyl-4,5,6,7-tetrahydrobenzo[b]thiophen-2-yl)amino)-6-(3-cyanopyrrolo[1,2-b]pyridazin-7-yl)-N-(2-fluoro-3-hydroxy-3-methylbutyl)nicotinamide] | 415 | – | – | 4
25 | N#Cc1cnn2c(-c3cc(NC45CCC(O)(CC4)CC5)c(C(=O)NC[C@H]4C[C@@H](NC(=O)C5CC5)C4)cn3)ccc2c1 [Example 732, 6-(3-cyanopyrrolo[1,2-b]pyridazin-7-yl)-N-(((1s,3s)-3-(cyclopropane-carboxamido)cyclobutyl)methyl)-4-((4-hydroxy-bicyclo[2.2.2]octan-1-yl)amino)nicotinamide] | 89 | 1 | – | –
